Results published in US20210127673A1, “HERBICIDES” (SYNGENTA PARTICIPATIONS AG, priority 2016, published 2021).

Key:
Type in all cases: in vivo
Setaria faberi (SETFA) [1] = assay: Pre-emergence herbicidal activity, Setaria faberi; design: key: 5=total damage to plant; 0=no damage to plant; settings: 1000 g/ha, evaluated after 13 days, Test 1b
Outline: (§1)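 Pots of seeds were sprayed one day after sowing (pre-emergence) with compound in acetone/water (50:50) plus 0.5% Tween 20, then grown in a glasshouse at 24/16 °C day/night, 14 h light, 65% humidity. Damage scored 0–5 (5 = total damage) after 13 days.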

[2] = tested on: Echinochloa crus-galli (ECHCG); assay: Post-emergence herbicidal activity, Echinochloa crus-galli; settings: 1000 g/ha, evaluated after 13 days, Test 2b
Outline: (§2)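 Glasshouse post-emergence spray test: seedlings treated at 8 days after sowing with compound formulated in 50:50 acetone/water plus 0.5% Tween 20, then grown on at 24/16 °C, 14 h light, 65% humidity. Injury rated 13 days later, 0 = no damage, 5 = total damage.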

Setaria faberi (SETFA) [3] = assay: Post-emergence herbicidal activity, Setaria faberi; design: key: 5=total damage to plant; 0=no damage to plant; settings: 1000 g/ha, evaluated after 13 days, Test 2b
Outline: as §2

Zea Mays (ZEAMX) [4] = assay: Post-emergence herbicidal activity, Zea Mays; design: key: 5=total damage to plant; 0=no damage to plant; settings: 1000 g/ha, evaluated after 13 days, Test 2b
Experimental: (§3) Seeds of a variety of test species were sown in standard soil in pots: Triticum aestivium (TRZAW), Avena fatua (AVEFA), Alopecurus myosuroides (ALOMY), Echinochloa crus-galli (ECHCG), Lolium perenne (LOLPE), Zea Mays (ZEAMX), Abutilon theophrasti (ABUTH), Amaranthus retroflexus (AMARE) and Setaria faberi (SETFA). After 8 days cultivation (post-emergence) under controlled conditions in a glasshouse (at 24/16° C., day/night; 14 hours light; 65% humidity), the plants were sprayed with an aqueous spray solution derived from the formulation of the technical active ingredient in acetone/water (50:50) solution containing 0.5% Tween 20 (polyoxyethelyene sorbitan monolaurate, CAS RN 9005-64-5). The test plants were then grown in a glasshouse under controlled conditions (at 24/16° C., day/night; 14 hours light; 65% humidity) and watered twice daily. After 13 days, the test was evaluated (5=total damage to plant; 0=no damage to plant).

Lolium perenne (LOLPE) [5] = assay: Pre-emergence herbicidal activity, Lolium perenne; design: key: 5=total damage to plant; 0=no damage to plant; settings: 1000 g/ha, evaluated after 13 days, Test 1b
Outline: as §1

Zea Mays (ZEAMX) [6] = assay: Pre-emergence herbicidal activity, Zea Mays; design: key: 5=total damage to plant; 0=no damage to plant; settings: 1000 g/ha, evaluated after 13 days, Test 1b
Experimental: (§4) Seeds of a variety of test species were sown in standard soil in pots: Triticum aestivium (TRZAW), Avena fatua (AVEFA), Alopecurus myosuroides (ALOMY), Echinochloa crus-galli (ECHCG), Lolium perenne (LOLPE), Zea Mays (ZEAMX), Abutilon theophrasti (ABUTH), Amaranthus retroflexus (AMARE) and Setaria faberi (SETFA). After cultivation for one day (pre-emergence) under controlled conditions in a glasshouse (at 24/16° C., day/night; 14 hours light; 65% humidity), the plants were sprayed with an aqueous spray solution derived from the formulation of the technical active ingredient in acetone/water (50:50) solution containing 0.5% Tween 20 (polyoxyethelyene sorbitan monolaurate, CAS RN 9005-64-5). The test plants were then grown in a glasshouse under controlled conditions (at 24/16°, day/night; 14 hours light; 65% humidity) and watered twice daily. After 13 days, the test was evaluated (5=total damage to plant; 0=no damage to plant).

[7] = tested on: Abutilon theophrasti (ABUTH); assay: Pre-emergence herbicidal activity, Abutilon theophrasti; design: key: 5=total damage to plant; 0=no damage to plant; settings: 1000 g/ha, evaluated after 13 days, Test 1b
Experimental: as §4

[8] = tested on: Amaranthus retroflexus (AMARE); assay: Post-emergence herbicidal activity, Amaranthus retroflexus; design: key: 5=total damage to plant; 0=no damage to plant; settings: 1000 g/ha, evaluated after 13 days, Test 2b
Experimental: as §3

[9] = tested on: Amaranthus retroflexus (AMARE); assay: Pre-emergence herbicidal activity, Amaranthus retroflexus; design: key: 5=total damage to plant; 0=no damage to plant; settings: 1000 g/ha, evaluated after 13 days, Test 1b
Experimental: as §4

Lolium perenne (LOLPE) [10] = assay: Post-emergence herbicidal activity, Lolium perenne; design: key: 5=total damage to plant; 0=no damage to plant; settings: 1000 g/ha, evaluated after 13 days, Test 2b
Outline: as §2

[11] = tested on: Echinochloa crus-galli (ECHCG); assay: Pre-emergence herbicidal activity, Echinochloa crus-galli; design: key: 5=total damage to plant; 0=no damage to plant; settings: 1000 g/ha, evaluated after 13 days, Test 1b
Outline: as §1

[12] = tested on: Abutilon theophrasti (ABUTH); assay: Post-emergence herbicidal activity, Abutilon theophrasti; design: key: 5=total damage to plant; 0=no damage to plant; settings: 1000 g/ha, evaluated after 13 days, Test 2b
Experimental: as §3

SMILES | SETFA damage score (0-5) (Setaria faberi (SETFA) [1]) | ECHCG damage score (0-5) [2] | SETFA damage score (0-5) (Setaria faberi (SETFA) [3]) | ZEAMX damage score (0-5) (Zea Mays (ZEAMX) [4]) | LOLPE damage score (0-5) (Lolium perenne (LOLPE) [5]) | ZEAMX damage score (0-5) (Zea Mays (ZEAMX) [6]) | ABUTH damage score (0-5) [7] | AMARE damage score (0-5) [8] | AMARE damage score (0-5) [9] | LOLPE damage score (0-5) (Lolium perenne (LOLPE) [10]) | ECHCG damage score (0-5) [11] | ABUTH damage score (0-5) [12]
CCN(C(=O)OC(C)(C)C)c1ccc(-c2cncc(F)c2)nc1C(F)(F)F [Compound B14] | 0 | 2 | 4 | 4 | 0 | 0 | 4 | 0 | 0 | 1 | 0 | 0
CCOC(=O)Nc1ccc(-c2cncc(F)c2)nc1C(F)(F)F [Compound B15, ethyl N-[6-(5-fluoro-3-pyridyl)-2-(trifluoromethyl)-3-pyridyl]carbamate] | 4 | 3 | 4 | 5 | 0 | 4 | 0 | 1 | 0 | 2 | 1 | 0
CC(C)OC(=O)Nc1ccc(-c2cncc(F)c2)nc1C(F)(F)F [Compound B16, isopropyl N-[6-(5-fluoro-3-pyridyl)-2-(trifluoromethyl)-3-pyridyl]carbamate] | 4 | 4 | 5 | 5 | 1 | 5 | 0 | 0 | 0 | 3 | 3 | 0
CN(C(=O)OC(C)(C)C)c1ccc(-c2cncc(C(F)(F)F)c2)nc1C(F)(F)F [Compound B17] | 0 | 1 | 1 | 1 | 0 | 0 | 0 | 0 | 0 | 0 | 0 | 0
Cc1cncc(-c2ccc(N(C)C(=O)OC(C)(C)C)c(C(F)(F)F)n2)c1 [Compound B18] | 1 | 2 | 3 | 2 | 0 | 0 | 1 | 0 | 1 | 1 | 0 | 0
Cc1nc(-c2cncc(F)c2)ccc1NC(=O)OC(C)(C)C [Compound B19] | 4 | 4 | 5 | 5 | 3 | 5 | 1 | 2 | 1 | 4 | 4 | 1
Cc1nc(-c2cncc(C#N)c2)ccc1NC(=O)OC(C)(C)C [Compound B20] | 4 | 4 | 5 | 4 | 1 | 5 | 0 | 1 | 1 | 3 | 5 | 0
COc1cncc(-c2ccc(N(C)C(=O)OC(C)(C)C)c(C(F)(F)F)n2)c1 [Compound B21] | 1 | 2 | 3 | 2 | 0 | 0 | 1 | 0 | 1 | 1 | 0 | 0
CN(C(=O)OC(C)(C)C)c1ccc(-c2cccnc2)nc1C(F)(F)F [Compound B22] | 4 | 4 | 4 | 2 | 1 | 0 | 1 | 0 | 1 | 3 | 3 | 0
COc1cncc(-c2ccc(NC(=O)OC(C)(C)C)c(C)n2)c1 [Compound B23] | 4 | 2 | 3 | 5 | 1 | 1 | 1 | 1 | 1 | 2 | 1 | 1
Cc1nc(-c2cncc(C(F)(F)F)c2)ccc1NC(=O)OC(C)(C)C [Compound B24] | 1 | 2 | 2 | 2 | 0 | 1 | 1 | 2 | 1 | 1 | 0 | 1
Cc1nc(-c2cccnc2)ccc1NC(=O)OC(C)(C)C [Compound B25] | 5 | 3 | 5 | 4 | 2 | 3 | 1 | 2 | 1 | 4 | 2 | 2
CC(C)(C)OC(=O)Nc1ccc(-c2cncnc2)nc1Cl [Compound B27] | 4 | 4 | 5 | 3 | 1 | 2 | 0 | 2 | 0 | 2 | 4 | 2
Cc1nc(-c2cncnc2)ccc1NC(=O)OC(C)(C)C [Compound B28] | 2 | 4 | 4 | 5 | 1 | 3 | 0 | 0 | 0 | 4 | 2 | 0
